Assay results as given in patent US7071231B2, “Naphthalene ureas as glucose uptake enhancers” (Telik, Inc., priority 1999, dated 2006).
Counter-ions that a name gives are not always drawn. Like-named read-outs stand apart in the source and are kept apart here.

Test system: 3T3 L1 fibroblasts
Assay: Glucose transport activity assay (14C-2-deoxy-D-glucose uptake)
Type: cell-based
Settings: Mus musculus
Experimental: Glucose Transport Activity Assay.
Stimulation of the insulin receptor leads to the transport of glucose from the blood into cells, thus modulating blood glucose levels. 3T3 L1 fibroblasts (ATCC) were grown in Dulbecco's modified Eagle's medium (DMEM) with 10% fetal bovine serum (FBS). The cells were plated at a density of 3×10^4 cells/well in 24-well plates. Two days after confluence was reached, the cells were treated for 3 days with 0.5 mM isobutylmethylxanthine (IBMX), 1 μM dexamethasone, and 1.7 μM insulin. The cells were then transferred to DMEM with 10% FBS and supplemented with 1.7μM insulin for 2 more days. The cells were maintained in DMEM with 10% FBS for an additional 4 days. Finally the cells were serum-starved overnight in 0.1% bovine serum albumin (BSA) in DMEM.
The following day, the medium was replaced with 150 mM NaCl, 1.7 mM KCl, 0.9 mM CaCl2, K2HPO4 (pH 7.4) to which were added either the experimental compounds or their vehicle (DMSO). Insulin or its vehicle (0.01% BSA) was diluted in the assay buffer (containing test compound or vehicle, respectively) to final concentration of […]. After incubation for 30 min at 37° C., 5 μCi/ml ^14C-2-deoxy-D-glucose was added, and the incubation was continued for additional 30 min at 37° C. The cells were then washed 3 times with ice-cold PBS/20 mM glucose and lysed in 250 μl of lysis buffer (50 mM HEPES pH 7.6, 1% Triton X-100) for 30 min at room temperature. Radioactivity in the lysate was quantified by scintillation counting.
Once ^14C-2-deoxy-D-glucose is transported into the cell, it is not released. Glucose transport is, therefore, proportional to the amount of radioactivity in the lysate. The concentration of compound necessary to produce an increase in glucose transport to greater than 150% of the vehicle control (generally representing the sum of the standard deviation of the vehicle control plus the largest standard deviation of a test sample) was recorded as the EC (effective concentration). Shown in FIG. 3 is glucose uptake by cells at various concentrations when treated with Compound 13 and Compound 15.

[1] = EC (effective concentration) for increase in glucose transport, 14C-2-deoxy-D-glucose, 3T3 L1 cells, read-out: Concentration (μM) to reach >150% activity of vehicle control
[2] = 3T3-L1, read-out: Concentration (μM) to reach >150% activity of vehicle control

`O=C(Nc1ccc2ccc(S(=O)(=O)Nc3cccc(-c4nnn[nH]4)c3)cc2c1)Nc1ccc2ccc(S(=O)(=O)Nc3cccc(-c4nnn[nH]4)c3)cc2c1` [Compound 67, N-(7-{[(3-(1H-1,2,3,4-tetraazol-5-yl)phenyl)amino]sulfonyl}(2-naphthyl))[(7-{[(3-(1H-1,2,3,4-tetraazol-5-yl)phenyl)amino]sulfonyl}(2-naphthyl))amino]carboxamide] was tested, and the EC (150% of vehicle control) [1] was 3.2 µM.

Compound `O=C(Nc1ccc2c(O)cc(S(=O)(=O)Nc3cccc(-c4nnn[nH]4)c3)cc2c1)Nc1ccc2c(O)cc(S(=O)(=O)Nc3cccc(-c4nnn[nH]4)c3)cc2c1` [Compound 68, N-(5-hydroxy-7-{[(3-(1H-1,2,3,4-tetraazol-5-yl)phenyl)amino]sulfonyl}(2-naphthyl))[(5-hydroxy-7-{[(3-(1H-1,2,3,4-tetraazol-5-yl)phenyl)amino]sulfonyl}(2-naphthyl))amino]carboxamide] has an EC (150% of vehicle control) [1] of 3.2 µM.

Compound `O=C(Nc1ccc2c(O)cc(S(=O)(=O)Nc3ccc(-c4nnn[nH]4)cc3)cc2c1)Nc1ccc2c(O)cc(S(=O)(=O)Nc3ccc(-c4nnn[nH]4)cc3)cc2c1` [Compound 69, N-(5-hydroxy-7-{[(4-(1H-1,2,3,4-tetraazol-5-yl)phenyl)amino]sulfonyl}(2-naphthyl))[(5-hydroxy-7-{[(4-(1H-1,2,3,4-tetraazol-5-yl)phenyl)amino]sulfonyl}(2-naphthyl))amino]carboxamide] has an EC (150% of vehicle control) [1] of over 32 µM.

For `CCOP(=O)(O)c1cccc(NS(=O)(=O)c2ccc3ccc(NC(=O)Nc4ccc5ccc(S(=O)(=O)Nc6cccc(P(=O)(O)OCC)c6)cc5c4)cc3c2)c1` [Compound 71, N-[7-({[3-(ethoxy(hydroxyphosphoryl))phenyl]amino}sulfonyl)(2-naphthyl)]{[7-({[3-(ethoxy(hydroxyphosphoryl))phenyl]amino}sulfonyl)(2-naphthyl)]amino}carboxamide], the EC (150% of vehicle control) [2] was 3.2 µM.

`COC(=O)[C@H](Cc1ccc(O)cc1)NS(=O)(=O)c1ccc2ccc(NC(=O)Nc3ccc4ccc(S(=O)(=O)O)cc4c3)cc2c1` [Compound 72, 7-({[7-({[(1S)-2-(4-hydroxyphenyl)-1-(methoxycarbonyl)ethyl]amino}sulfonyl)-2-naphthyl]amino}carbonylamino)naphthalene-2-sulfonic acid] gave an EC (150% of vehicle control) [1] of 3.2 µM.

With `O=C(Nc1ccc2ccc(S(=O)(=O)O)cc2c1)Nc1ccc2ccc(S(=O)(=O)N[C@@H](Cc3ccc(O)cc3)C(=O)O)cc2c1` [Compound 73, (2S)-3-(4-hydroxyphenyl)-2-{[(7-{[N-(7-sulfo(2-naphthyl))carbamoyl]amino}(2-naphthyl))sulfonyl]amino}propanoic acid] the EC (150% of vehicle control) [1] was 10 µM.

`COC(=O)[C@H](Cc1ccc(O)cc1)NS(=O)(=O)c1ccc2ccc(NC(=O)Nc3ccc4ccc(S(=O)(=O)N[C@@H](Cc5ccc(O)cc5)C(=O)OC)cc4c3)cc2c1` [Compound 74, methyl (2S)-2-({[7-({N-[7-({[(1S)-2-(4-hydroxyphenyl)-1-(methoxycarbonyl)ethyl]amino}sulfonyl)(2-naphthyl)]carbamoyl}amino)(2-naphthyl)]sulfonyl}amino)-3-(4-hydroxyphenyl)propanoate] was tested, and the EC (150% of vehicle control) [1] was 3.2 µM.

Compound `O=C(Nc1ccc2ccc(S(=O)(=O)N[C@@H](Cc3ccc(O)cc3)C(=O)O)cc2c1)Nc1ccc2ccc(S(=O)(=O)N[C@@H](Cc3ccc(O)cc3)C(=O)O)cc2c1` [Compound 75, (2S)-2-({[7-({N-[7-({[(1S)-1-carboxy-2-(4-hydroxyphenyl)ethyl]amino}sulfonyl)(2-naphthyl)]carbamoyl}amino)(2-naphthyl)]sulfonyl}amino)-3-(4-hydroxyphenyl)propanoic acid] has an EC (150% of vehicle control) [1] of 3.2 µM.

`O=C(Nc1ccc2ccc(S(=O)(=O)O)cc2c1)Nc1ccc2ccc(S(=O)(=O)Nc3ncccn3)cc2c1` [Compound 78, 7-[({7-[(pyrimidin-2-ylamino)sulfonyl]-2-naphthyl}amino)carbonylamino]naphthalene-2-sulfonic acid] was tested, and the EC (150% of vehicle control) [1] was 10 µM.

For `O=C(Nc1ccc2ccc(S(=O)(=O)Nc3ncccn3)cc2c1)Nc1ccc2ccc(S(=O)(=O)Nc3ncccn3)cc2c1` [Compound 79, N-{7-[(pyrimidin-2-ylamino)sulfonyl](2-naphthyl)}({7-[(pyrimidin-2-ylamino)sulfonyl](2-naphthyl)}amino)carboxamide], the EC (150% of vehicle control) [1] was 10 µM.

`O=C(Nc1ccc2ccc(S(=O)(=O)Nc3cnccn3)cc2c1)Nc1ccc2ccc(S(=O)(=O)Nc3cnccn3)cc2c1` [Compound 80, N-{7-[(pyrazin-2-ylamino)sulfonyl](2-naphthyl)}({7-[(pyrazin-2-ylamino)sulfonyl](2-naphthyl)}amino)carboxamide] showed an EC (150% of vehicle control) [1] of 3.2 µM.

`O=C(Nc1ccc2ccc(S(=O)(=O)Nc3cccc(O)c3)cc2c1)Nc1ccc2ccc(S(=O)(=O)Nc3cccc(O)c3)cc2c1` [Compound 81, N-(7-{[(3-hydroxyphenyl)amino]sulfonyl}(2-naphthyl))[(7-{[(3-hydroxyphenyl)amino]sulfonyl}(2-naphthyl))amino]carboxamide] gave an EC (150% of vehicle control) [1] of 3.2 µM.

For `O=C(Nc1ccc2c(O)cc(S(=O)(=O)Nc3cccc(CO)c3)cc2c1)Nc1ccc2c(O)cc(S(=O)(=O)Nc3cccc(CO)c3)cc2c1` [Compound 82, N-[5-hydroxy-7-({[3-(hydroxymethyl)phenyl]amino}sulfonyl)(2-naphthyl)]{[5-hydroxy-7-({[3-(hydroxymethyl)phenyl]amino}sulfonyl)(2-naphthyl)]amino}carboxamide], the EC (150% of vehicle control) [1] was 3.2 µM.

Work on `N#Cc1cccc(NS(=O)(=O)c2ccc3ccc(NC(=O)Nc4ccc5ccc(S(=O)(=O)Nc6cccc(C#N)c6)cc5c4)cc3c2)c1` [Compound 83, N-(7-{[(3-cyanophenyl)amino]sulfonyl}(2-naphthyl))[(7-{[(3-cyanophenyl)amino]sulfonyl}(2-naphthyl))amino]carboxamide] yielded an EC (150% of vehicle control) [1] of 3.2 µM.

`O=C(Nc1ccc2ccc(S(=O)(=O)Nc3cccc([N+](=O)[O-])c3)cc2c1)Nc1ccc2ccc(S(=O)(=O)Nc3cccc([N+](=O)[O-])c3)cc2c1` [Compound 84, N-(7-{[(3-nitrophenyl)amino]sulfonyl}(2-naphthyl))[(7-{[(3-nitrophenyl)amino]sulfonyl}(2-naphthyl))amino]carboxamide] gave an EC (150% of vehicle control) [2] of 3.2 µM.

`O=C(Nc1ccc2ccc(S(=O)(=O)Nc3ccc(Cl)c(CO)c3)cc2c1)Nc1ccc2ccc(S(=O)(=O)Nc3ccc(Cl)c(CO)c3)cc2c1` [Compound 85, N-[7-({[4-chloro-3-(hydroxymethyl)phenyl]amino}sulfonyl)(2-naphthyl)]{[7-({[4-chloro-3-(hydroxymethyl)phenyl]amino}sulfonyl)(2-naphthyl)]amino}carboxamide] showed an EC (150% of vehicle control) [1] of 32 µM.

Compound `O=C(Nc1ccc2c(O)cc(S(=O)(=O)Nc3cccc(C(F)(F)F)c3)cc2c1)Nc1ccc2c(O)cc(S(=O)(=O)Nc3cccc(C(F)(F)F)c3)cc2c1` [Compound 88, N-[5-hydroxy-7-({[3-(trifluoromethyl)phenyl]amino}sulfonyl)(2-naphthyl)]{[5-hydroxy-7-({[3-(trifluoromethyl)phenyl]amino}sulfonyl)(2-naphthyl)]amino}carboxamide] has an EC (150% of vehicle control) [1] of over 32 µM.

In the case of `O=C(Nc1ccc2ccc(S(=O)(=O)O)cc2c1)Nc1ccc2ccc(S(=O)(=O)Nc3ccc(Cl)c(S(=O)(=O)O)c3)cc2c1` [Compound 90, 7-{[(7-{[(4-chloro-3-sulfophenyl)amino]sulfonyl}-2-naphthyl)amino]carbonylamino}naphthalene-2-sulfonic acid], the EC (150% of vehicle control) [1] is reported as 3.2 µM.

`O=C(Nc1ccc2ccc(S(=O)(=O)Nc3ccc(Cl)c(S(=O)(=O)O)c3)cc2c1)Nc1ccc2ccc(S(=O)(=O)Nc3ccc(Cl)c(S(=O)(=O)O)c3)cc2c1` [Compound 91, 2-chloro-5-{[(7-{[(7-{[(4-chloro-3-sulfophenyl)amino]sulfonyl}(2-naphthyl))amino]carbonylamino}(2-naphthyl))sulfonyl]amino}benzenesulfonic acid] was tested, and the EC (150% of vehicle control) [1] was 3.2 µM.

`CN(c1cccc(S(=O)(=O)O)c1)S(=O)(=O)c1ccc2ccc(NC(=O)Nc3ccc4ccc(S(=O)(=O)N(C)c5cccc(S(=O)(=O)O)c5)cc4c3)cc2c1` [Compound 103, 3-{methyl[(7-{[(7-{[methyl(3-sulfophenyl)amino]sulfonyl}(2-naphthyl))amino]-carbonylamino}-(2-naphthyl))sulfonyl]amino}benzenesulfonic acid dipotassium salt] was tested, and the EC (150% of vehicle control) [2] was 3.2 µM.

`O=C(Nc1ccc2ccc(S(=O)(=O)Nc3cccc(S(=O)(=O)O)c3)cc2c1)Nc1ccc2ccc(S(=O)(=O)Nc3cccc(S(=O)(=O)O)c3)cc2c1` [Compound 114, 3-{[(7-{[N-(7-{[(3-sulfophenyl)amino]sulfonyl}-2-naphthyl)carbamoyl]amino}-2-naphthyl)sulfonyl]amino}benzenesulfonic acid disodium salt] gave an EC (150% of vehicle control) [1] of 3.2 µM.
